Assays:
Assay type in all cases: cell-based, human
[1] = tested on: MMP-9 release; assay: LPS- or CSE-induced MMP-9 release in isolated peripheral blood neutrophils (LUMINEX); details: 6 h
Experimental: (§1) Neutrophils and monocytes were isolated from peripheral venous blood by standard laboratory procedures. In brief, peripheral venous blood was mixed with dextran 500 at 3% (in 0.9% saline) in a proportion of 2:1. This mixture was incubated at room temperature for 30 min until erythrocytes were sedimented. The upper phase was carefully collected and added on Ficoll-Paque Histopaque 1077 (Amershan Pharmacia Biotech, Barcelona, Spain) density gradient in a proportion of 3:1. The two phases generated were centrifuged at 150 g, 4° C. for 30 min. Thus, the interface was collected to isolate monocytes, and the pellet obtained (which is consisted a mixture of neutrophils and low proportion of residual erythrocytes and traces of eosinophils and basophils) was resuspended in an erythrocyte lysis buffer (Biolegend, UK) for 5 min in ice. Cell suspension was washed two times with phosphate buffer (PBS).
CSE was prepared as previously outlined (Milara et al.; Ortiz et al.). Briefly, the smoke of a research cigarette (2R4F; Tobacco Health Research, University of Kentucky, KY, USA) was generated by a respiratory pump (Apparatus Rodent Respirator 680; Harvard, Germany) through a puffing mechanism related to the human smoking pattern (3 puff/min; 1 puff 35 ml; each puff of 2 s duration with 0.5 cm above the filter) and was bubbled into a flask containing 25 ml of pre-warmed (37° C.) RPMI 1640 culture medium supplemented as describe above. The CSE solution was sterilized by filtration through a 0.22-μm cellulose acetate sterilizing system (Corning, N.Y.). The resultant CSE solution was considered to be 100% CSE and was used for experiments within 30 min of preparation. CSE 10% corresponds approximately to the exposure associated with smoking two packs per day (Su et al., 1998). The quality of the prepared CSE solution was assessed based on the absorbance at 320 nm, which is the specific absorption wavelength of peroxynitrite. Stock solutions with an absorbance value of 3.0±0.1 were used. To test for cytotoxicity from CSE, isolated neutrophils and monocytes were treated with CSE concentrations of up to 5% for 24.
(§2) Peripheral neutrophil cell suspension was adjusted to 500×10^3 cells per well in 24-well plates and incubated in RPMI culture medium for 1 h into the incubator at 37° C., 5% CO2. […] Both the stimulus and drug were remained together for 6 h. Supernatants were collected and centrifuged at 120 g for 5 min, and the free-cell supernatant was used to measure IL-8, MMP-9, IL-1β, GM-CSF and CCL-5.
(§3) IL-8 was determined by using commercially available enzyme-linked immunosorbent assay kit for IL-8 (R&D Systems, UK) according to the manufacturer's protocol. MMP-9, IL-1β, GM-CSF and CCL-5 were measured by LUMINEX technology according to the manufacturer's protocol.
(§4) Data were presented as mean±SEM. IC50 values were calculated for each drug and their combinations. Statistical analysis of results was carried out by analysis of variance (ANOVA) followed by Bonferroni test, by Student's t test, or by non-parametric tests as appropriate (GraphPad Software Inc, San Diego, Calif., USA). Significance was accepted when P<0.05. For clinical correlations of lung function and gene expression from neutrophils the non-parametric Spearman correlation analysis was carried out.

[2] = tested on: HDAC2; assay: Real time RT-PCR of HDAC2 expression in CSE-stimulated neutrophils from COPD patients; details: RNO 1 nM and 1 μM, DEX 1 μM, RNO 1 nM plus DEX 1 μM, NAC 1 mM, CSE 5%
Experimental: (§5) Neutrophils and monocytes were isolated from peripheral venous blood by standard laboratory procedures. In brief, peripheral venous blood was mixed with dextran 500 at 3% (in 0.9% saline) in a proportion of 2:1. This mixture was incubated at room temperature for 30 min until erythrocytes were sedimented. The upper phase was carefully collected and added on Ficoll-Paque Histopaque 1077 (Amershan Pharmacia Biotech, Barcelona, Spain) density gradient in a proportion of 3:1. The two phases generated were centrifuged at 150 g, 4° C. for 30 min. […]
(§6) CSE was prepared as previously outlined (Milara et al.; Ortiz et al.). […] The quality of the prepared CSE solution was assessed based on the absorbance at 320 nm, which is the specific absorption wavelength of peroxynitrite. Stock solutions with an absorbance value of 3.0±0.1 were used. […]
(§7) Total RNA was obtained from isolated neutrophils under basal conditions or after different drug and stimulation periods defined above by using TriPure® Isolation Reagent (Roche, Indianapolis, USA). […] Relative quantification of these transcripts was determined with the 2^−ΔΔCt method using glyceraldehyde phosphate dehydrogenase (GAPDH) as endogenous control (Applied Biosystems; 4352339E) and normalized to control group as previously described (Milara et al., 2009).
(§8) Then, mRNA was isolated and quantified for different genes.

[3] = tested on: MKP1; assay: Real time RT-PCR of MKP1 mRNA in CSE-stimulated neutrophils from COPD patients; details: RNO 1 nM and 1 μM, DEX 1 μM, RNO 1 nM plus DEX 1 μM, NAC 1 mM for 1 h, then CSE 5% 6 h
Experimental: as §5, §6, §7, §8

[4] = tested on: MIF; assay: Real time RT-PCR of MIF mRNA in CSE-stimulated neutrophils from COPD patients; details: RNO 1 nM and 1 μM, DEX 1 μM, RNO 1 nM plus DEX 1 μM, NAC 1 mM for 1 h, then CSE 5% 6 h
Experimental: as §5, §6, §7, §8

[5] = tested on: CCL-5 release; assay: LPS-induced CCL-5 release in isolated peripheral blood neutrophils (LUMINEX); details: LPS (1 μg/ml), 6 h
Experimental: as §1, §2, §3, §4

[6] = tested on: intracellular ROS; assay: Intracellular reactive oxygen species (ROS) by flow cytometry in whole blood neutrophils from COPD patients; details: fMLP 1 μM or CSE 5%, 1 h, NAC 1 mM
Experimental: Intracellular reactive oxygen species (ROS) were measured by a flow cytometry assay using 2′,7′-dichlorodihydrofluorescein diacetate (H2DCF-DA, Molecular Probes, UK) as previously outlined (Milara et al., 2010). H2DCF-DA was added for 15 min before stimulus to a final concentration of 5 μM to measure intracellular ROS. The bacterial peptide fMLP was added as stimulus at 1 μM […] to generate intracellular ROS (Elbim et al., 2001). In other experiments, to reproduce in vivo conditions, CSE 5% was added to generate intracellular ROS. Intracellular ROS was measured using fresh whole blood from COPD patients. Blood neutrophils were selected using CD16-Alexa Fluor 647 antibody (molecular probes, UK) as neutrophil marker, and CD14-PerCEP-Cy5.5 mouse antihuman (molecular probes, UK) as monocyte marker in an Epics Profile II flow cytometer. A total of 1 ml of whole blood was pre-incubated at 37° C. for 30 min with RNO ([…] (1 mM) and H2DCF-DA followed by fMLP 1 μM or CSE 5% stimulation for another 1 h. Then erythrocytes were lysed using a commercial erythrocyte lysis buffer (Biolegend, UK) for 10 min. Fluorescence intensity was measured in the polymorphonuclear region of whole blood in an Epics Profile II flow cytometer. Results were expressed as DCF fluorescence in relative fluorescence units (RFU).
To this end, whole blood was stimulated with the bacterial peptide fMLP 1 μM or with CSE 5% in presence or absence of RNO or NAC for 1 h.

[7] = CSE 5%, neutrophils from COPD patients
[8] = CSE 5%, neutrophils from HEALTHY
[9] = LPS (1 μg/ml), neutrophils from COPD patients
[10] = LPS (1 μg/ml), neutrophils from HEALTHY

-log IC50, inhibition of MMP-9 release [1, 7]: 8.76 ± 0.11 | -log IC50, inhibition of MMP-9 release [1, 9]: 7.64 ± 0.23 | -log IC50, inhibition of CCL-5 release ([5]; neutrophils from COPD patients): 8.77 ± 0.35
Structure (SMILES): O=C(Nc1c(Cl)c[n+]([O-])cc1Cl)c1ccc(OC(F)F)c(OCC2CC2)c1 [RNO, roflumilast N-oxide]
Maximal % Inhibition of MMP-9 release [1, 7]: 62.58 ± 2.28% | -log IC50, inhibition of MMP-9 release [1, 8]: 8.87 ± 5.6 | Maximal % Inhibition of MMP-9 release [1, 8]: 64.8 ± 5.64% | Maximal % Inhibition of MMP-9 release [1, 9]: 94.61 ± 11.82% | -log IC50, inhibition of MMP-9 release [1, 10]: 7.66 ± 0.22 | Maximal % Inhibition of MMP-9 release [1, 10]: 98.9 ± 12.6% | effect on CSE-induced HDAC2 downregulation [2]: inhibited | effect on CSE-induced down-regulation of MKP1 mRNA expression [3]: reversed the effect of CSE | effect on CSE-induced increase of MIF mRNA expression [4]: reversed the effect of CSE | Maximal % Inhibition of CCL-5 release ([5]; neutrophils from COPD patients): 83.01 ± 6.74% | -log IC50, inhibition of CCL-5 release ([5]; neutrophils from HEALTHY): 8.62 ± 0.14 | Maximal % Inhibition of CCL-5 release ([5]; neutrophils from HEALTHY): 79.34 ± 3.63% | effect on ROS generation in neutrophils [6]: dose-dependently inhibited | effect on ROS generation in neutrophils ([6]; listed as Roflumilast N-oxide): inhibits

Source: patent US20150164916A1, “ROFLUMILAST COMPOSITIONS FOR THE TREATMENT OF COPD” (Forest Laboratories Holdings Ltd., priority 2012, published 2015)
